Blank lines part the entries; values can stand above or below the compound they belong to. The source made the active and inactive calls.
Assays:
[1] = molecular target: Aryl hydrocarbon receptor (Homo sapiens, UniProt P35869); assay: Luminescence-based cell-based high throughput dose response assay for activators of the Aryl Hydrocarbon Receptor (AHR). [Related pubchem assays: 2796 (Primary screen (AHR activators in singlicate)), 2845 (Confirmation screen (AHR activators in triplicate)), 434939 (Counterscreen (PXR activators in triplicate)), 2804 (Summary (AHR activators))]; type: ADME
[2] = molecular target: T1, Leucine aminopeptidase (Plasmodium falciparum 3D7, UniProt Q8IL11); assay: P. falciparum M17LAP inhibitors, primary screen, biochemical, fluorogenic H-Leu-NHMec substrate, 1536-well (AID 1619); type: functional
T1 sequence (Q8IL11 whole entry): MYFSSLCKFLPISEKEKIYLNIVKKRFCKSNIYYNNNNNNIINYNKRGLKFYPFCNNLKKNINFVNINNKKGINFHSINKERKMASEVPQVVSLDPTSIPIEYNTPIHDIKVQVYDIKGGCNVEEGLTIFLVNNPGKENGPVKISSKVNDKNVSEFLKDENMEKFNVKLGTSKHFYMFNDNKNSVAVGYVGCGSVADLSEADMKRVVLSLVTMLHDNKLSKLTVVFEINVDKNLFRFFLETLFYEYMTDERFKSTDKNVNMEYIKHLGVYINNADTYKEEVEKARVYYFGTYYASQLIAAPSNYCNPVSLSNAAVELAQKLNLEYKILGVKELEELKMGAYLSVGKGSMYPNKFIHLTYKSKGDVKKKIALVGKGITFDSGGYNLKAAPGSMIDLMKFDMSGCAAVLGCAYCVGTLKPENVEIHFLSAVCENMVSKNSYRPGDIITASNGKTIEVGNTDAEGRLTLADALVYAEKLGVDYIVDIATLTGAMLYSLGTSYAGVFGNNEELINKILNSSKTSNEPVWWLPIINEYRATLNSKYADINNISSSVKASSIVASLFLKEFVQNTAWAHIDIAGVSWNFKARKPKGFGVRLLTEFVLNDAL

[3] = Luminescence Cell-Based Dose Confirmation HTS to Identify Inhibitors of Platelet Dense Granule Release. [Related pubchem assays: 1663 (Primary HTS), 1678 (Summary of Project)]; type: functional
[4] = molecular target: Potassium voltage-gated channel subfamily KQT member 2 (Rattus norvegicus, UniProt O88943, W236L); assay: potentiation of rat KCNQ2 current – cell-based, automated electrophysiology, mechanism study for KCNQ2 potentiator project, dose response (AID 2603); type: functional
[5] = molecular target: Luciferin 4-monooxygenase (Photinus pyralis, UniProt P08659); assay: inhibition of purified Photinus pyralis luciferase – biochemical, luminescence, dose response (AID 1891)
[6] = Luminescence Cell-Based Dose Retest to Confirm Inhibitors of Cancer Stem Cells. [Related pubchem assays (depositor defined):AID2717, AID2721]; type: functional; details: Homo sapiens
[7] = system: Vero; assay: mammalian cell viability reduction – secondary assay, cytotoxicity control for West Nile virus antiviral project, dose response (AID 1650); type: functional; details: Chlorocebus sabaeus
[8] = molecular target: Glyceraldehyde-3-phosphate dehydrogenase (Homo sapiens, UniProt P04406)
[9] = molecular target: T2, Bcl-2-related protein A1 (Mus musculus, UniProt Q07440); assay: small-molecule antagonists of Bfl-1/BH3 interaction – biochemical, TR-FRET, mouse Bfl-1, confirmation (AID 621);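 also: TR-FRET binding of GST-Bfl-1 to FITC-labelled Bid peptide via terbium antibody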
T2 sequence (Q07440 whole entry): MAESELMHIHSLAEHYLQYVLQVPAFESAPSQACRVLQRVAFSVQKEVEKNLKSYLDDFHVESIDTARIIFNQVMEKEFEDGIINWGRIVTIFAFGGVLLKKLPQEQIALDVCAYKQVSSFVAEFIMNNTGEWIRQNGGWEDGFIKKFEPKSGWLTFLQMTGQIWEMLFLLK

[10] = molecular target: T2, Bcl-2-related protein A1; assay: Bfl-1 binding inhibitors, SAR follow-up, biochemical, fluorescence polarization (AID 1070)
[11] = NIH-3T3 fibroblast cytotoxicity, dose response, cytotoxicity control, cell-based, fluorescence, Alamar Blue, secondary assay (AID 2327); type: functional;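 also: NIH-3T3 mouse fibroblasts cultured with fluconazole at 8 µg/mL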
[12] = HEK-293T cell viability reduction – luminescence, B-cell screen hits, cytotoxicity control for BCR NF-kB inhibitor project, dose response (AID 489021); type: functional, cell-based;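 also: HEK-293T cells carrying an NF-kB luciferase reporter; cells exposed to compound for about 14 hours before viability readout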
[13] = viability loss of HPDE-C7K cells – cell-based, fluorescence, HTS, primary screen (AID 431); type: functional; details: Homo sapiens
[14] = fluconazole-exposed Candida albicans growth modulators – fluorescence, retest, confirmation (AID 2467); type: functional, cell-based
[15] = Luminescence-based dose response cell-based high throughput screening assay for cytotoxic compounds using the IEC-6 intestinal epithelial cell line. [Related pubchem assays: 1858 (Summary AID.), 1825 (Counterscreen.), 1907 (Confirmation screen.)]; type: functional
[16] = system: INS1; assay: INS-1E survival protection against cytokine death – cell-based, luminescence, retest, dose response (AID 449756); type: functional; details: Rattus norvegicus;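 also: cell death triggered by IL-1 beta plus TNF-alpha plus IFN-gamma mixture; protective hits raise ATP signal compared with cytokine alone wells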
[17] = HPDE-C7 pancreatic duct cell viability loss – fluorescence, HTS (AID 430); type: functional, cell-based; details: Homo sapiens
[18] = molecular target: Histone-lysine N-methyltransferase NSD2 (Homo sapiens, UniProt O96028); type: biochemical
[19] = molecular target: RNA-editing ligase 1, mitochondrial (Trypanosoma brucei brucei, UniProt P86926); assay: inhibition of trypanosome RNA editing ligase – biochemical, fluorescence, Trypanosoma brucei, dose response (AID 1117295); type: functional
[20] = molecular target: T3, Apoptotic protease-activating factor 1 (Homo sapiens, UniProt O14727); type: functional
T3 sequence (O14727 whole entry): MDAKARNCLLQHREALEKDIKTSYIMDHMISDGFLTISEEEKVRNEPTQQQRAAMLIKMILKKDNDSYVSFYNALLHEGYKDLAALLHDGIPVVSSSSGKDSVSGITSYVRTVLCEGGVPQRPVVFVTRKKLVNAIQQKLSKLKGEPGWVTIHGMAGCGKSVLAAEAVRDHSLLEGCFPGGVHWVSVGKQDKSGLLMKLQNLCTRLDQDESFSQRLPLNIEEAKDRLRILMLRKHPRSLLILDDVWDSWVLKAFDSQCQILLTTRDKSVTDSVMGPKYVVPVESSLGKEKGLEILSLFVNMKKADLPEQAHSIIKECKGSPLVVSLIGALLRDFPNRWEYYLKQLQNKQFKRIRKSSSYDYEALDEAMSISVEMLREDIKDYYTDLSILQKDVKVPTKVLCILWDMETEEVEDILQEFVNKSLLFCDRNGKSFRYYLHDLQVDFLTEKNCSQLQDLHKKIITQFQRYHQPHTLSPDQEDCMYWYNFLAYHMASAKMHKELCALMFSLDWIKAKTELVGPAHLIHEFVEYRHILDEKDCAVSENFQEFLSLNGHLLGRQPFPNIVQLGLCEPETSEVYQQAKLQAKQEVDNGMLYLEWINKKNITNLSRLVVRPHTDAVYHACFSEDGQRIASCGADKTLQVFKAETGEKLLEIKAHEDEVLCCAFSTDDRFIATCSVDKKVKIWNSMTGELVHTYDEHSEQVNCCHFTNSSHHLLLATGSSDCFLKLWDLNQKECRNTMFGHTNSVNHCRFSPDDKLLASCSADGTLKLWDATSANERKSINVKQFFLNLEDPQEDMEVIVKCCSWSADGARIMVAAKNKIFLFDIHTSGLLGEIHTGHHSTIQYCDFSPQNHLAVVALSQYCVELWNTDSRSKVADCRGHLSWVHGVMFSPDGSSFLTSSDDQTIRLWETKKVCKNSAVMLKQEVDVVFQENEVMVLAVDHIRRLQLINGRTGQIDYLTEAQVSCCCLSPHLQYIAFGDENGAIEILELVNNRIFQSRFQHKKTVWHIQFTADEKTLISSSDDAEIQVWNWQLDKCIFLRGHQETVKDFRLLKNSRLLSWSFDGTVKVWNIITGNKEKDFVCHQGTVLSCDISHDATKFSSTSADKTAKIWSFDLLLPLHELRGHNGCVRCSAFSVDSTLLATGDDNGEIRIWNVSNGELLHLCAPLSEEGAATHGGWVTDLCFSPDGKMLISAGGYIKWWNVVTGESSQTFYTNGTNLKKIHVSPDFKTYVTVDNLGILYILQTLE

[21] = Trypanosoma cruzi growth suppression in host cells – NIH3T3 host cells, beta-gal luminescence, confirmation (AID 2044); type: functional, cell-based;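 also: intracellular parasites grown in NIH/3T3 mouse fibroblasts as host cells; luminescent beta-galactosidase reporter signal from transgenic T. cruzi replicating inside host cells; inhibitors lower the luminescence signal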
[22] = molecular target: Serine/threonine-protein phosphatase PP1-alpha catalytic subunit (Homo sapiens, UniProt P62136); assay: inhibition of protein phosphatase 1 activity – biochemical, fluorescence, dose response (AID 2394)
[23] = NIH3T3 cell viability loss – ATP luminescence, mouse fibroblasts, counter-screen, dose response (AID 2010); type: functional, cell-based;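 also: cells exposed to compound for about 90 hours before reading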
[24] = molecular target: Serine/threonine-protein phosphatase (Homo sapiens, UniProt Q9BPW0); assay: inhibition of protein phosphatase 5 activity – biochemical, fluorescence, dose response (AID 2395)
Serine/threonine-protein phosphatase, sequence (Q9BPW0 whole entry): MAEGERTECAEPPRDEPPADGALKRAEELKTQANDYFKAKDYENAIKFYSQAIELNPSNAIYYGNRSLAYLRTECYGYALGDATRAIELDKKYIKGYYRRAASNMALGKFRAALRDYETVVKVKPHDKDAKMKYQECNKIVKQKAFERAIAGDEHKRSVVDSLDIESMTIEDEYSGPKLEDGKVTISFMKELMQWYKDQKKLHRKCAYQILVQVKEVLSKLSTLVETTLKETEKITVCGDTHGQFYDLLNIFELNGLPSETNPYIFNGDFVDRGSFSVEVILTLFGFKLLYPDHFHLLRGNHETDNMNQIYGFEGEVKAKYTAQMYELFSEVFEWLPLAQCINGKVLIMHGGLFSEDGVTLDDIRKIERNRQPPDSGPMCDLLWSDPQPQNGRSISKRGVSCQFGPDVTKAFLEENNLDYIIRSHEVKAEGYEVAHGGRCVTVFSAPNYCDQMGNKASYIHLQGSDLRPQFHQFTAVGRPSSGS

RNA-editing ligase 1, mitochondrial, sequence (P86926 whole entry): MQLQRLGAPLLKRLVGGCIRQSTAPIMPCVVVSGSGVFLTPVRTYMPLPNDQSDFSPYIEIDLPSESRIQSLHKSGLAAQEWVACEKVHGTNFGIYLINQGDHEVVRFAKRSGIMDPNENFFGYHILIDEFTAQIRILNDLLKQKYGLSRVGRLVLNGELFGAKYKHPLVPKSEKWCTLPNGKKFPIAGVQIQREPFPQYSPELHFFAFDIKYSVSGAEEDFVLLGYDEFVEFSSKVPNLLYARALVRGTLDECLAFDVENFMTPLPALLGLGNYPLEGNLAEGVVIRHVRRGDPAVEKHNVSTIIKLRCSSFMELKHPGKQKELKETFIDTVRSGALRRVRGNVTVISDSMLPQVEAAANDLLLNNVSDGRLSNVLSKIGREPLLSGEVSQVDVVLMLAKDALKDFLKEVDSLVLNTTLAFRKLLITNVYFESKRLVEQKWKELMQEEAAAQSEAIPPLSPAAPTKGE
Potassium voltage-gated channel subfamily KQT member 2, sequence (O88943 whole entry W236L): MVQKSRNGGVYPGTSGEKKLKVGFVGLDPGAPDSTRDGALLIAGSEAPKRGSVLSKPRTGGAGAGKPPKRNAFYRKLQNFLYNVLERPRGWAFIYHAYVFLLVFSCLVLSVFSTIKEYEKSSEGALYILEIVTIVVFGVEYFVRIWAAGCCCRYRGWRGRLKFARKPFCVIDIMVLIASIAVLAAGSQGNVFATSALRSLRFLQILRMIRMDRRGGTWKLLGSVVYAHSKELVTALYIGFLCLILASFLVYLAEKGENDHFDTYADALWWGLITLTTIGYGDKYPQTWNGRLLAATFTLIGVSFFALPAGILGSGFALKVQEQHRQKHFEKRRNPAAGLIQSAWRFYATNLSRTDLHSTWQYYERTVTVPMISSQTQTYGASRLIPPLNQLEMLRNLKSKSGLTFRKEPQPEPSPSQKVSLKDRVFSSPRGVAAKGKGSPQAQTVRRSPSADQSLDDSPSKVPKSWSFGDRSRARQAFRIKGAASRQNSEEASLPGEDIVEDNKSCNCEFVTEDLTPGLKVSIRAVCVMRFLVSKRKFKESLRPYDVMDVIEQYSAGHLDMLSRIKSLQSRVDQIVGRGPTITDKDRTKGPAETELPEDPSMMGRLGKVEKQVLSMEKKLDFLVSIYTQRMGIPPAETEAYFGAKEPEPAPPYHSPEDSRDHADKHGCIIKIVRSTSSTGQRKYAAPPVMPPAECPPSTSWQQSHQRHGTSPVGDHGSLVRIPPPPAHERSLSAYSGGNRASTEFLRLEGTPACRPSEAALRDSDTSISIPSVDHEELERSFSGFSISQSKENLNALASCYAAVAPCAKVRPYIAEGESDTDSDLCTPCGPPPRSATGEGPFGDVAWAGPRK
Glyceraldehyde-3-phosphate dehydrogenase, sequence (P04406 whole entry): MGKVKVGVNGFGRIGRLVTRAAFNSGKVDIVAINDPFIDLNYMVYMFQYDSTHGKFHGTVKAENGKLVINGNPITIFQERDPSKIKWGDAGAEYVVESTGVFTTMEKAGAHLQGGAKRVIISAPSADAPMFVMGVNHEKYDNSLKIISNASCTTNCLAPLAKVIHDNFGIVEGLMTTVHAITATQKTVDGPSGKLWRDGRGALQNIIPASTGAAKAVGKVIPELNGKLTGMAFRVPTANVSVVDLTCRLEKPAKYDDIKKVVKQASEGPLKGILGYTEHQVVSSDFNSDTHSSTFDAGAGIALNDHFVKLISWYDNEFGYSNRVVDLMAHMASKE
Serine/threonine-protein phosphatase PP1-alpha catalytic subunit, sequence (P62136 whole entry): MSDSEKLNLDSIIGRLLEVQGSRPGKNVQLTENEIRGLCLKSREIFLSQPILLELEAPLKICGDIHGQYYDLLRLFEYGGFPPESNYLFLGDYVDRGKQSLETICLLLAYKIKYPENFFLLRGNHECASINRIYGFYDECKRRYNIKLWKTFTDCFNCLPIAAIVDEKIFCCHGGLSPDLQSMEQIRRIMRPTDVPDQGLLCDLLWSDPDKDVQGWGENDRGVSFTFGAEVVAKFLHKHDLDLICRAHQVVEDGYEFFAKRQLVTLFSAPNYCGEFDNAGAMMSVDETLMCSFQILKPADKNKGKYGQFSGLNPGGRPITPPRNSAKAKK
Aryl hydrocarbon receptor, sequence (P35869 whole entry): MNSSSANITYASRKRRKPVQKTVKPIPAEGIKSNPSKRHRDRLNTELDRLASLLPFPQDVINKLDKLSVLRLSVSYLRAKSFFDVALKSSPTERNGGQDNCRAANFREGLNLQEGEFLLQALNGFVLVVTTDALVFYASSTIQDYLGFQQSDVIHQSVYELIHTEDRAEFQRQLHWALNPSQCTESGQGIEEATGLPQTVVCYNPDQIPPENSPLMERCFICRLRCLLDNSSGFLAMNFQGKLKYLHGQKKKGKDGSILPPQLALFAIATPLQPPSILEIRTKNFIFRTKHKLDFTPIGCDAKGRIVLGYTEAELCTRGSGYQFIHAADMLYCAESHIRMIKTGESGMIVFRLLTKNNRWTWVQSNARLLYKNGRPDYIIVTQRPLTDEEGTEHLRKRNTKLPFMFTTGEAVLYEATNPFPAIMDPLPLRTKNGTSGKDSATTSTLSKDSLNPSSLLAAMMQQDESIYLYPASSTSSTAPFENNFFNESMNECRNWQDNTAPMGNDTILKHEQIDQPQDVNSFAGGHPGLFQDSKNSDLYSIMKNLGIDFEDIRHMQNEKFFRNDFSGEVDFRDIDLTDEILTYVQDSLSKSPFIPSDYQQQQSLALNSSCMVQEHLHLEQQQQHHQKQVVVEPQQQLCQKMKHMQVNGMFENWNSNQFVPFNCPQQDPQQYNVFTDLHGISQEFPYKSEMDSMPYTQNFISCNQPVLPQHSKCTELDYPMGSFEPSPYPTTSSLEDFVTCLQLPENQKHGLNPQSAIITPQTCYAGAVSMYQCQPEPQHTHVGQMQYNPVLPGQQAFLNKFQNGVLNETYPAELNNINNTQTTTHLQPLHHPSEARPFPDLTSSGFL
Histone-lysine N-methyltransferase NSD2, sequence (O96028 whole entry): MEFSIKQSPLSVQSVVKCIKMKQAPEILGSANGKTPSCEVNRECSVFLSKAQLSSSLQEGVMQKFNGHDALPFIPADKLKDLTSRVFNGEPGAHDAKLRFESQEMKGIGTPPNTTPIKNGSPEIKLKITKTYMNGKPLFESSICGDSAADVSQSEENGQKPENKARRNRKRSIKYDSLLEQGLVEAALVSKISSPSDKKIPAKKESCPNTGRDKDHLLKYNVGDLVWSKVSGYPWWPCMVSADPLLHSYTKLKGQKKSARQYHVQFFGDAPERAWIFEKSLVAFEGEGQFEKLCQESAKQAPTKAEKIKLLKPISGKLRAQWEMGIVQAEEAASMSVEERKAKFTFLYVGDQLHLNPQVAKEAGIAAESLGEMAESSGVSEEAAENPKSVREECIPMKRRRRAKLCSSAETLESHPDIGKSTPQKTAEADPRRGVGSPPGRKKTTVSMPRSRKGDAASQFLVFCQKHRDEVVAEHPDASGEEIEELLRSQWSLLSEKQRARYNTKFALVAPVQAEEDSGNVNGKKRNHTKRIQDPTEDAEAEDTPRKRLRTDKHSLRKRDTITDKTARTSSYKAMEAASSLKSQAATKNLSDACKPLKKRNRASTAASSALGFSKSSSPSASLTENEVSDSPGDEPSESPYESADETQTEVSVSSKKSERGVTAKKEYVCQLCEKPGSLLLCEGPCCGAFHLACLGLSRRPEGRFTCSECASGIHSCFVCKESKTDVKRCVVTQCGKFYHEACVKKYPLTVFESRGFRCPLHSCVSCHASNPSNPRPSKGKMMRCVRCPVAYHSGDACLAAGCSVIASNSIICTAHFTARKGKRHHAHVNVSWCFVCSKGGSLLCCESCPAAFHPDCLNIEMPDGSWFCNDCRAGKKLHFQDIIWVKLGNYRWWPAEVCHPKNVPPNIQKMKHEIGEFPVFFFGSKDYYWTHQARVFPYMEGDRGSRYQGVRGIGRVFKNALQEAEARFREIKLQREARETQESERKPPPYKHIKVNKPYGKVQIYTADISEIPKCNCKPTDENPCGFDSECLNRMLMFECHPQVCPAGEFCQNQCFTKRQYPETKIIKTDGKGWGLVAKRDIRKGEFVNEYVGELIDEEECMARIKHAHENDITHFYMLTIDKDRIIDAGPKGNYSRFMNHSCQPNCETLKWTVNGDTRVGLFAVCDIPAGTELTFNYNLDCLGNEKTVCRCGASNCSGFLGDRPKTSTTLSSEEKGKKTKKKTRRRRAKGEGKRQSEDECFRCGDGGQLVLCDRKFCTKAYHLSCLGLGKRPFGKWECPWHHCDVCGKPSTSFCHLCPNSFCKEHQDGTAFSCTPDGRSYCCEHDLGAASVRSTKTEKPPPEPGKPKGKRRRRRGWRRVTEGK

EC50 [1]: 12.5 µM (not active)
IC50 [2]: 44.5 µM (active)
SMILES: Nc1[nH]ncc1C(=O)Nc1cccc(C(F)(F)F)c1

SMILES: Cc1cc(Cl)c(S(=O)(=O)N2CCN(c3ccccn3)CC2)cc1OCC(=O)NC1CCCCC1
EC50 [3]: > 112 µM (not active)
EC50 [4]: 5.34 µM (active)
EC50 [5]: 77.1 µM (active)

SMILES: Cc1cc(C)c(C(=O)/C=C/c2ccc(C(C)C)cc2)c(O)n1
AC50 [6]: 9.65 µM (active)
CC50 [7]: 35.8 µM (active)

IC50 [8]: > 100 µM (not active)
IC50 [9]: 4.96 µM (active)
IC50 [10]: 12.6 µM (active)
SMILES: COCCNC1=C(Cl)C(=O)N(c2ccc(Cl)c(Cl)c2)C1=O

SMILES: C[C@H]1CCC/C=C/C2C[C@H](O)CC2[C@H](O)/C=C/C(=O)O1 (some centres undefined)
EC50 [11]: 2.37 µM (inconclusive)
IC50 [12]: > 80 µM (inactive)
EC50 [13]: 0.24 µM (active)
EC50 [14]: 0.843 µM (active)
IC50 [15]: 0.446 µM (active)
AC50 [16]: 1.01 µM (active)
EC50 [17]: 0.23 µM (active)

SMILES: Oc1ccccc1/C=N/Nc1cc(N2CCCC2)nc(N2CCCC2)n1
AC50 [18]: 1.97 µM (active)
IC50 [19]: > 96.6 µM (inactive)
IC50 [20]: 1.03 µM (active)
EC50 [21]: 1.85 µM (active)
IC50 [22]: 34.4 µM (not active)
EC50 [23]: > 60 µM (inconclusive)
IC50 [24]: 4.26 µM (active)

— ChEMBL document CHEMBL1201862, “PubChem BioAssay data set” (2004)
